Measured values: patent publication US11666661B2, “Methods and compounds for targeted autophagy” (THE REGENTS OF THE UNIVERSITY OF CALIFORNIA, priority 2018, dated 2023)

What was measured:
Format in all cases: binding
LC3A (C17) = LC3A (C17) (Homo sapiens, UniProt Q9H492); assay: gel-based ABPP screen of cysteine-reactive covalent ligands against IA-alkyne labeling of LC3A; settings: for hit that displaced IA-alkyne probe labeling of C17 on LC3A (loss of in-gel fluorescence): pure LC3A protein
Excerpt: The critical part of this platform was to first develop a small-molecule recruiter for an autophagy adapter. We performed chemoproteomics-enabled covalent ligand discovery against the autophagy adapter LC3A, an important autophagy protein involved in substrate recognition, to discover an LC3A-recruiter, which can be combined with a protein targeting ligand via a linker to enable targeted protein autophagy of undruggable targets. […] While the NETS-ester probe appeared to label multiple sites on LC3A, the IA-alkyne probe apparently labeled one site, consistent with only one cysteine within LC3A-C17. Across the LC3 proteins, LC3A is the only protein that bears one cysteine. We next screened our cysteine-reactive covalent ligand library against iodoacetamide-alkyne (IA-alkyne) labeling of C17 on LC3A, and looked for hits that displaced probe-labeling resulting in loss of fluorescence by gel. Through this effort, we identified several cysteine-reactive acrylamide hits, including TRH 1-65, TRH 1-68, TRH 1-170, TRH 1-171, YP 1-44, CC 1-42, CC 1-48, EN2, EN7, EN35, and EN40 (FIGS. 5A-5D). These small-molecule recruiters or analogs of these chemical scaffolds that also bind to LC3A C17 can now be appended to linkers and protein targeting ligands to send specific protein cargo, and associated cellular contents, compartments, cells, or organelles off for targeted protein autophagy and lysososomal degradation. […] Examples of compounds that can be appended onto an autophagy adapter recruiter is JQ1, an inhibitor of bromodomain-containing BRD4 protein (an epigenetic regulator implicated in numerous human cancers). JQ1 can be appended to a linker, and an LC3A recruiter EN7 to degrade BRD4 in cells (FIGS. 7A-7C). Protein autophagy degrader can also be used to broadly recognize misfolded proteins and protein aggregates by conjugating thioflavin T, a general aggregate-protein recognizing compound, to a linker and EN7 to send these toxic protein aggregates and misfolded proteins to the autophagosome for lysosomal degradation (FIG. 8).

p62/SQSTM1 protein = p62/SQSTM1 protein (Homo sapiens, UniProt Q13501); assay: MS/MS of direct adduct on a peptide derived from p62/SQSTM1
Sequence of p62/SQSTM1 protein (Q13501 whole entry): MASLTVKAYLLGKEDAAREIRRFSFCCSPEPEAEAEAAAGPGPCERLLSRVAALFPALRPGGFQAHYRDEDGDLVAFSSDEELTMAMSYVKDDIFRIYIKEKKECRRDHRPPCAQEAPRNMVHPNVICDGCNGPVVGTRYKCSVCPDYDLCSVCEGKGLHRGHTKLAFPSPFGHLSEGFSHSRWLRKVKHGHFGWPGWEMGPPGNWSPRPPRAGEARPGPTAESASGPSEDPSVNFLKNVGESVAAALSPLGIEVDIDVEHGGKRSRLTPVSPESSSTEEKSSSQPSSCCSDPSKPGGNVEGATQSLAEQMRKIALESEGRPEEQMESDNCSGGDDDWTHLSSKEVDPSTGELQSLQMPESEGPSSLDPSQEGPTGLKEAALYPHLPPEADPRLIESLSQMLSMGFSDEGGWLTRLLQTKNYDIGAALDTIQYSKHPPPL
Excerpt: FIG. 14. MS/MS data corresponding to the direct adduct of EN96 on a peptide derived from p62/SQSTM1.

SQSTM1 (p62) = SQSTM1 (p62) (Homo sapiens, UniProt Q13501); assay: gel-based ABPP cysteine-reactive covalent ligand screen against SQSTM1 (p62); settings: FIGS. 10A-10B
Sequence of SQSTM1 (p62) (Q13501 whole entry): as above
Excerpt: We have performed a cysteine-reactive covalent ligand screen against the autophagy adapter protein SQSTM1 (p62) using gel-based activity-based protein profiling (ABPP) approaches. We have identified several hit compounds that targeted a cysteine on SQSTM1 (FIGS. 10A-10B). […] To test whether we can use this potential SQSTM1 recruiter EN96 in a TADT platform, we synthesized BMF-1-64, which links EN96 to a BRD4 inhibitor JQ1, to determine whether we could degrade BRD4 in a proteasome-independent manner (FIG. 11).

LC3A = LC3A (Homo sapiens, UniProt Q9H492); assay: Gel-based ABPP analysis against LC3A; settings: IA-alkyne probe
Protocol: FIGS. 5A-5D. Covalent ligand screen against LC3A. Gel-based ABPP screen of cysteine-reactive ligand library against IA-alkyne labeling of LC3A. Cysteine-reactive covalent ligands were pre-incubated with LC3A pure protein (50 microM) for 30 min at room temperature prior to IA-alkyne labeling of the protein (10 microM) for 30 min at room temperature. Proteins were run on SDS/PAGE and in-gel fluorescence was analyzed.

Row | SMILES | hit that displaced IA-alkyne probe labeling of C17 on LC3A (loss of in-gel fluorescence) (LC3A (C17)) | other results
1 | C=CC(=O)NC(c1ccco1)c1ccccc1OC (centres unmarked) [EN35] | hits | 
2 | C=CCOc1ccccc1CN(C(=O)CCl)c1ccc2c(c1)OCO2 [EN96] |  | cysteine of p62/SQSTM1 modified (p62/SQSTM1 protein): reacts with C113; potency ranking among covalent ligand hits against SQSTM1 (SQSTM1 (p62)): most potent covalent ligand against SQSTM1
3 | C=CC(=O)N1CCC(C)C(c2ccco2)C1 (centres unmarked) [EN40] | hits | 
4 | C=CC(=O)N=C1N=C2C=CC(I)=CN2Cc2ccccc21 [EN7] | hits | targeting of C17 of LC3A, lowest concentration (LC3A): ≥ 1 µM; concentration down to which the compound binds LC3A (LC3A (C17); FIG. 6): ≥ 1 µM
5 | C=CC(=O)NCc1ccc(C(=O)N2CCC(c3nc4ccccc4s3)CC2)cc1 [EN2] | hits | 
